The record followed here is US20220162163A1, “ALANINE-BASED MODULATORS OF PROTEOLYSIS AND ASSOCIATED METHODS OF USE” (Arvinas Operations, Inc., priority 2015, published 2022).

What is called DC50 is the midpoint of the concentration-degradation curve.

Common to all, as to assay type: cell-based
One assay addresses T1, JNK2 (Homo sapiens, UniProt P45984).
T1 construct: A549 lung adenocarcinoma cells were purchased from ATCC and cultured in RPMI1640 Medium; endogenous in cells; host or cells: A549
In words: Cellular assay of JNK degradation (A549 cells, Western blot), JNK2. The conditions noted are these: for JNK2 degradation range: PROTAC concentration 1 μM, relative to DMSO control; for DC50: read-out: JNK2 DC50 range. As to the method:
(§1) Protocol of the cellular assay of JNK degradation (A549 cells, Western blot). A549 lung adenocarcinoma cells were purchased from ATCC and cultured in RPMI1640 Medium (Gibco) supplemented with 10% Fetal Bovine Serum (Gibco). […] Cells were stimulated with PMA (Phorbol 12-myristate 13-acetate, Sigma) for 1 hour before harvesting. Cells were lysed in Cell Signaling lysis buffer supplemented with protease inhibitors (Thermo). The lysates were centrifuged at 20,000×g for 15 minutes to clarify, and protein concentration was determined by BCA (Pierce). Equal amounts of protein (5 micrograms) were separated by SDS-PAGE and transferred onto nitrocellulose membranes. The mermbranes were probed with antibodies against SAPK/JNK (Cell Signaling #9252), phospho-c-Jun (Cell Signaling #3270), MDM2 (Sigma M4308) and p53 (Cell Signaling #2527). HRP-conjugated anti-rabbit and anti-mouse secondary antibodies were from Cell Signaling. The bands were visualized with SuperSignal West Femto Substrate (Thermo). Quantitation was done using Image Lab Software v5.2.1.
(Immunoblotting shows a protein as a band on a membrane.)

The next assay addresses T2, JNK1 (Homo sapiens, UniProt P45983).
T2 construct: A549 lung adenocarcinoma cells were purchased from ATCC and cultured in RPMI1640 Medium; endogenous in cells; host or cells: A549
In words: Cellular assay of JNK degradation (A549 cells, Western blot), JNK1. The settings on record: for JNK1 degradation range: PROTAC concentration 1 μM, relative to DMSO control; for DC50: read-out: JNK1 DC50 range. The procedure: as §1

A further assay concerns the target T3, Androgen receptor (AR) (Homo sapiens, UniProt P10275).
T3 construct: endogenous in cells; host or cells: VCaP
T3 sequence (P10275 1-920): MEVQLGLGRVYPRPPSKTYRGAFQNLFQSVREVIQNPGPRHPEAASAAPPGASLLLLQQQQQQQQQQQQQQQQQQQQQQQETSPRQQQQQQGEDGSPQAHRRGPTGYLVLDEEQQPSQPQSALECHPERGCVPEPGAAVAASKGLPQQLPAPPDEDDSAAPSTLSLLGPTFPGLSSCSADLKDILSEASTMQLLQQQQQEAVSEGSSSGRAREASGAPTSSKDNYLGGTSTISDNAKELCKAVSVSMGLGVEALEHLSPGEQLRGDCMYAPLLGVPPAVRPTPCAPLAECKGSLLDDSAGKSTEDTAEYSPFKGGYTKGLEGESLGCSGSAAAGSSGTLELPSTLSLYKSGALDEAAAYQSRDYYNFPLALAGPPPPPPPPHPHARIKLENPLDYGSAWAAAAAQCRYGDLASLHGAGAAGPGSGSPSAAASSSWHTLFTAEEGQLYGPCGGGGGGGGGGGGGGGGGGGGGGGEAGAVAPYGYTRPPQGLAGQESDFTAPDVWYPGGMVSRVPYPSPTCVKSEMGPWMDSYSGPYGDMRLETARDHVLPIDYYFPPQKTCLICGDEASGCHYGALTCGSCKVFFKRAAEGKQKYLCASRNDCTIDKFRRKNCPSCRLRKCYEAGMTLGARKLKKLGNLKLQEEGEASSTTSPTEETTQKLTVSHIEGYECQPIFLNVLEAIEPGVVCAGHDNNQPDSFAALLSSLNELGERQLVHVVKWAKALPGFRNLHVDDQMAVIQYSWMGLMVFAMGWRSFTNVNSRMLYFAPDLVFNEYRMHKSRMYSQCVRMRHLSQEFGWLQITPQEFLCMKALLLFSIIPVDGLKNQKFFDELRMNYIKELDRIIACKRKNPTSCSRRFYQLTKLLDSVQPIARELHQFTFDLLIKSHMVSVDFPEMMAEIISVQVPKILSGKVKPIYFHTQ
As to the kind of experiment: Cellular assay of androgen receptor (AR) degradation (VCaP cells, ELISA). The conditions noted are these: for Dmax at 1 µM: 4 h, androgen receptor, VCaP cells, PROTAC concentration 1 μM, relative to DMSO control, read-out: Target protein degradation range; for Androgen receptor (AR) degradation in VCaP cells: @ 1 μM. The procedure: Protocol of the Cellular Assay of Androgen Receptor (AR) Degradation (VCaP Cells, ELISA).
For detection Cell Signaling PathScan Sandwich Elisa Catalog #12850 Lot 11 was used. VCaP cells were cultured in ATCC DMEM+ATCC FBS and plated 40,000/well 100 μl/well in RPMI P/S with 5% CSS Omega (bovine) serum into a 96 well plate. The cells were grown for a minimum of 3 days, dosed with compounds in 0.1% DMSO (diluted with 5% CSS) and incubated with aspiration for 4 hours. 100 μl of 1× Cell Signaling lysis buffer #9803 (36 ml dH2O+4 ml Cell Signaling lysis buffer) was added. The incubation was placed on cold room shaker for 10 min at speed 8-9. 5 μl to 100 μl of Diluent was transferred to Elisa plate (0.15 ug/ml-0.075 ug/ml) and stored at 4 C overnight on cold room shaker speed 5 (gentle swirl) and then shaken next morning at 37° C. for 30 min. The preparation was washed 4×200 μl with Elisa wash buffer and aspirated with eight-channel aspirator. 100 μl/well of AR detection Ab was added after which the preparation was covered and shaken at 37° C. for 1 hr. 100 ul TMB was added, and the mixture was shaken for 5 min while under observation. When TMB turned light blue, 100 ul of Stop solution was added, and the mixture was shaken and read at 450 nm. Also read at 562 for background subtraction.

T1 sequence (P45984 whole entry): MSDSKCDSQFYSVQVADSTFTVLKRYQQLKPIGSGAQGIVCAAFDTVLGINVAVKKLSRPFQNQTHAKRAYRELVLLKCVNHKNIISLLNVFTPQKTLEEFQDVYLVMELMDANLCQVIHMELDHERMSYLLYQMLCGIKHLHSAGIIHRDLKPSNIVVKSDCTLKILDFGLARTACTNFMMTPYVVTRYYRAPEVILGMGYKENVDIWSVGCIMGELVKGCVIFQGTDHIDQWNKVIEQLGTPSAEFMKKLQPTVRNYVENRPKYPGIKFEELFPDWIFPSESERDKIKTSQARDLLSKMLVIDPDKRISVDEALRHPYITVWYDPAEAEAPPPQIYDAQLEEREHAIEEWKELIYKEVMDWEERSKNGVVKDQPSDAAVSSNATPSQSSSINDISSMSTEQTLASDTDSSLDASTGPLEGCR
T2 sequence (P45983 whole entry): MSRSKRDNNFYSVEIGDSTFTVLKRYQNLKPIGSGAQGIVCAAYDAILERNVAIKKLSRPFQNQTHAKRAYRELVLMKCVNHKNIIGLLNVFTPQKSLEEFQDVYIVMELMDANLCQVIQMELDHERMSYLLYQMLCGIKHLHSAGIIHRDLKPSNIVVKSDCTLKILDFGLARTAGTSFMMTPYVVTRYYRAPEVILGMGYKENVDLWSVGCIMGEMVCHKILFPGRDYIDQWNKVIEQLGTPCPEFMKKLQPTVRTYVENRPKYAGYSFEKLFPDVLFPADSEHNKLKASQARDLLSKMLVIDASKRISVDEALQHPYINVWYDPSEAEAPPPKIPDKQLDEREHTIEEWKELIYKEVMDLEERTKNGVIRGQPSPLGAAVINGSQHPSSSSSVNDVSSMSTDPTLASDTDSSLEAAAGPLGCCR

In the case of `CN[C@@H](C)C(=O)N[C@H](C(=O)N1CC[C@@H]2CCN(CCc3ccc(OCCOCCOC4CCC(Nc5nccc(-c6cnn(Cc7ccccc7)c6N(C)C)n5)CC4)cc3)C[C@@H]21)C1CCCCC1` (mixture of isomers) [Example 17, (2S)—N-[(1S)-1-cyclohexyl-2-oxo-2-[6-(2-[4-[2-(2-[[(1r,4r)-4-([4-[1-benzyl-5-(dimethylamino)-1H-pyrazol-4-yl]pyrimidin-2-yl]amino)cyclohexyl]oxy]ethoxy)ethoxy]phenyl]ethyl)-octahydro-1H-pyrrolo[2,3-c]pyridin-1-yl]ethyl]-2-(methylamino)propanamide], at JNK2, the JNK2 degradation range entry is given as “A (degradation more than 60%)” and the DC50 lay in the range of 100 to 1000 nM. Also, on JNK1, the JNK1 degradation range result was “A (degradation more than 60%)” and the DC50 fell in the range of 100 to 1000 nM.

On to `CN[C@@H](C)C(=O)N[C@H](C(=O)N1CC[C@@H]2CCN(CCc3ccc(OCCOCCOCCOC4CCC(Nc5nccc(-c6cnn(Cc7ccccc7)c6N(C)C)n5)CC4)cc3)C[C@@H]21)C1CCCCC1` (mixture of isomers) [Example 18, (2S)—N-[(1S)-1-cyclohexyl-2-oxo-2-[6-[2-(4-[2-[2-(2-[[(1r,4r)-4-([4-[1-benzyl-5-(dimethylamino)-1H-pyrazol-4-yl]pyrimidin-2-yl]amino)cyclohexyl]oxy]ethoxy)-ethoxy]ethoxy]phenyl)ethyl]-octahydro-1H-pyrrolo[2,3-c]pyridin-1-yl]ethyl]-2-(methylamino)propanamide], for which, at JNK2, the JNK2 degradation range result is “A (degradation more than 60%)” and the DC50 was in the range of 100 to 1000 nM. In addition, on JNK1, the JNK1 degradation range result is “A (degradation more than 60%)” and the 50% degradation concentration (DC50) was 1 to 100 nM.

Turning to `CN[C@@H](C)C(=O)N[C@H](C(=O)N1CCC[C@H]1C(=O)N[C@H]1c2ccccc2C[C@H]1OCCOCCOc1ccc(N2C(=S)N(c3ccc(C#N)c(C(F)(F)F)c3)C(=O)C2(C)C)cc1)C(C)(C)C` [Example 35, (S)—N-((1S,2R)-2-(2-(2-(4-(3-(4-cyano-3-(trifluoromethyl)-phenyl)-5,5-dimethyl-4-oxo-2-thioxoimidazolidin-1-yl)phenoxy)ethoxy)ethoxy)-2,3-dihydro-1H-inden-1-yl)-1-((S)-3,3-dimethyl-2-((S)-2-(methylamino)propanamido)-butanoyl)pyrrolidine-2-carboxamide], the Dmax at 1 µM on Androgen receptor (AR) lay in the range of 0 to 30%.

Take `CN[C@@H](C)C(=O)N[C@H](C(=O)N1CCC[C@H]1C(=O)N[C@H]1c2ccccc2C[C@H]1OCCOCCOCCOc1ccc(N2C(=S)N(c3ccc(C#N)c(C(F)(F)F)c3)C(=O)C2(C)C)cc1)C(C)(C)C` [Example 36, (2S)—N-[2-(2-[2-[2-(4-[3-[4-cyano-3-(trifluoromethyl)phenyl]-5,5-dimethyl-4-oxo-2-sulfanylideneimidazolidin-1-yl]phenoxy)ethoxy]ethoxy]ethoxy)-2,3-dihydro-1H-inden-1-yl]-1-[(2S)-3,3-dimethyl-2-[(2S)-2-(methylamino)propanamido]-butanoyl]pyrrolidine-2-carboxamide]: the Dmax at 1 µM at Androgen receptor (AR) was in the range of 0 to 30%.

Consider `CN[C@@H](C)C(=O)N[C@H](C(=O)N1CCC[C@H]1C(=O)N[C@H]1c2ccccc2C[C@H]1OCCOCCOCCOCCOc1ccc(N2C(=S)N(c3ccc(C#N)c(C(F)(F)F)c3)C(=O)C2(C)C)cc1)C(C)(C)C` [Example 37], for which, at Androgen receptor (AR), the Dmax at 1 µM fell in the range of 0 to 30%.

Turning to `CN[C@@H](C)C(=O)N[C@H](C(=O)N1CCC[C@H]1C(=O)N[C@H]1c2ccccc2C[C@H]1OCCOCCOc1ccc(C(=O)N[C@H]2C(C)(C)[C@H](Oc3ccc(C#N)c(Cl)c3)C2(C)C)cc1)C(C)(C)C` [Example 38, 1-[3,3-dimethyl-2-[(2S)-2-(methylamino)propanamido]-butanoyl]-N-[(1S,2R)-2-[2-[2-(4-[[(1r,3r)-3-(3-chloro-4-cyanophenoxy)-2,2,4,4-tetramethylcyclobutyl]carbamoyl]phenoxy)ethoxy]ethoxy]-2,3-dihydro-1H-inden-1-yl]pyrrolidine-2-carboxamide], the Dmax at 1 µM on Androgen receptor (AR) lay within 0 to 30%.

`CN[C@@H](C)C(=O)N[C@H](C(=O)N1CCC[C@H]1C(=O)N[C@H]1c2ccccc2C[C@H]1OCCOCCOc1ccc(N2C(=S)N(c3ccc(C#N)c(C(F)(F)F)c3)C(=O)C2(C)C)cc1)C(C)(C)C` [drawing 254, (2S)—N-[(1S,2R)-2-{2-[2-(4-{3-[4-cyano-3-(trifluoromethyl)phenyl]-5,5-dimethyl-4-oxo-2-sulfanylideneimidazolidin-1-yl}phenoxy)ethoxy]ethoxy}-2,3-dihydro-1H-inden-1-yl]-1-[(2S)-3,3-dimethyl-2-[(2S)-2-(methylamino)propanamido]butanoyl]pyrrolidine-2-carboxamide]: the “Androgen receptor (AR) degradation in VCaP cells” value (shortened to “Androgen receptor”) on Androgen receptor (AR) was found to be 29%.

With `CN[C@@H](C)C(=O)N[C@H](C(=O)N1CCC[C@H]1C(=O)N[C@H]1c2ccccc2C[C@H]1OCCOCCOCCOc1ccc(N2C(=S)N(c3ccc(C#N)c(C(F)(F)F)c3)C(=O)C2(C)C)cc1)C(C)(C)C` [drawing 255, (2S)—N-[(1S,2R)-2-(2-{2-[2-(4-{3-[4-cyano-3-(trifluoromethyl)phenyl]-5,5-dimethyl-4-oxo-2-sulfanylideneimidazolidin-1-yl}phenoxy)ethoxy]ethoxy}ethoxy)-2,3-dihydro-1H-inden-1-yl]-1-[(2 S)-3,3-dimethyl-2-[(2S)-2-(methylamino)propanamido]butanoyl]pyrrolidine-2-carboxamide], at Androgen receptor (AR), the “Androgen receptor” value stood at 9%.

Turning to `CN[C@@H](C)C(=O)N[C@H](C(=O)N1CCC[C@H]1C(=O)N[C@H]1c2ccccc2C[C@H]1OCCOCCOCCOCCOc1ccc(N2C(=S)N(c3ccc(C#N)c(C(F)(F)F)c3)C(=O)C2(C)C)cc1)C(C)(C)C` [drawing 256, (2S)—N-[(1S,2R)-2-{[1-(4-{3-[4-cyano-3-(trifluoromethyl)phenyl]-5,5-dimethyl-4-oxo-2-sulfanylideneimidazolidin-1-yl}phenyl)-1,4,7,10-tetraoxadodecan-12-yl]oxy}-2,3-dihydro-1H-inden-1-yl]-1-[(2S)-3,3-dimethyl-2-[(2S)-2-(methylamino)propanamido]butanoyl]pyrrolidine-2-carboxamide], the “Androgen receptor” value on Androgen receptor (AR) was found to be 9%.
